These results are taken from patent US20170348258A1, “3-Amino Benzamide Derivative Serving As B-Lactam Auxiliary Antibiotic, Preparation Method and Use Thereof” (THE HONG KONG POLYTECHNIC UNIVERSITY, priority 2014, published 2017).

Common to all, as to assay: Antibacterial susceptibility test (MIC, microbroth dilution)
Format in all cases: cell-based

In one experiment the test system is E. coli. Particulars: 18 hours at 37° C., >90% inhibition of bacterial growth. The text has this:
(§1) The bacterial strains used in microbial susceptibility test were E. coli, S. aureus 29213 and B. subtilis 168. E. coli and S. aureus 29213 were obtained from the laboratory of the Hong Kong Polytechnic University. B. subtilis 168 was purchased from American Type Culture Collection (USA). The mammalian cell lines L929 (mouse peritoneal fibroblast), LCC6 (a wild type breast cancer cell line), LCC6MDR (P-gp over-expressed breast cancer cell line) were stocks in our department. Nutrient Agar, tryptone and yeast extract were purchased from Oxoid Limited (Nepean, Ontario, Canada). Luria-Bertani (LB) medium was prepared from 2 g tryptone, 1 g yeast extract, and 2 g sodium chloride in 200 ml deionized water and sterilized. Müller-Hinton broth (MHB), cation-adjusted Müller-Hinton broth (MHB) and trypticase soy broth (TSB) for microbial susceptibility test were purchased from Becton, Dickinson and Company (New Jersey, USA). A microplate reader (Bio-Rad Laboratories Model 680) is used to measure bacterial growth and cytotoxicity. An Olympus FSX100® Bio Imaging Navigator Microscope was used to observe the morphology of B. subtilis cell.
(§2) The minimum inhibitory concentration (MIC) of each compound was determined using microbroth dilution method according to the National Committee for Clinical Laboratory Standards (CLSI) guidelines. All Compounds were dissolved in DMSO and diluted in a serial two-fold manner. A single colony of bacterial strain on a TSB agar plate was inoculated in 5 mL MHB or CA-MHB. The bacterial cells were incubated at 37° C. until the optimal density (OD600) of the growing cells reached 1.0. The cells were then diluted to a final concentration of approximately 5×10^5 CFU/mL in a serial two-fold manner in a 96-well microtiter plate (Iwaki, Japan). Compound 3 and PC190723 were used as positive controls. […] Table 1 below summarizes the MIC of all synthesized compounds.

A further experiment relates to S. aureus 29213. The note with it: 18 hours at 37° C., >90% inhibition of bacterial growth.
Excerpt: as §1, §2

For a further experiment, the system named is B. subtilis 168. The note with it: 18 hours at 37° C., >90% inhibition of bacterial growth, read-out: MIC, BS 168.
Excerpt: as §1, §2

Converted amounts (≈) assume the structure as drawn. Where two headings read alike, the source gives them in different places. A value given as a limit tells only on which side of the number the result lay.

As for `CCCCCCCCCNc1ccc(F)c(C(N)=O)c1` [Compound F342, 2-fluoro-5-(nonylamino)benzamide], the MIC against E. coli (Escherichia coli) was more than 100 µM; against S. aureus 29213 (Staphylococcus aureus, 29213), more than 100 µM; in the experiment with B. subtilis 168 (Bacillus subtilis, 168) it was 25 µM (≈ 7.01 µg/mL).
On to `CCCCOCCCCNc1ccc(F)c(C(N)=O)c1F` [Compound F350, 3-((4′-butoxy)butylamino)-2,6-difluorobenzamide], for which the MIC was more than 100 µM in the experiment with E. coli (Escherichia coli); more than 100 µM against S. aureus 29213 (Staphylococcus aureus, 29213); more than 100 µM with B. subtilis 168 (Bacillus subtilis, 168).
On to `NC(=O)c1c(F)ccc(N(Cc2ccc(F)cc2F)Cc2ccc(F)cc2F)c1F` [Compound F365, 3-(bis(2′,4′-difluorobenzyl)amino)-2,6-difluorobenzamide], for which the MIC was more than 100 µM against E. coli, more than 100 µM in the experiment on S. aureus 29213 and less than 50 µM in the experiment with B. subtilis 168.
Turning to `CCCCCC/C=C\CNc1ccc(F)c(C(N)=O)c1F` [Compound F370, (Z)-2,6-difluoro-3-(2-nonenylamino)benzamide], the minimum inhibitory concentration (MIC) with E. coli (Escherichia coli) was more than 100 µM; in the experiment on S. aureus 29213 (Staphylococcus aureus, 29213) it was 25 µM (≈ 7.41 µg/mL); in the experiment with B. subtilis 168 (Bacillus subtilis, 168), 6.25 µM (≈ 1.85 µg/mL).
Consider `CCCCCCCCC(=O)Nc1ccc(F)c(C(N)=O)c1F` [Compound F368, 2,6-difluoro-3-nonanamidobenzamide], for which the minimal inhibitory concentration (MIC) in the experiment on E. coli (Escherichia coli) was more than 100 µM; in the experiment with S. aureus 29213 (Staphylococcus aureus, 29213), more than 100 µM; in the experiment with B. subtilis 168 (Bacillus subtilis, 168), more than 100 µM.
For `CCCCCCCCCN(C)c1cccc(C(N)=O)c1` [Compound F413, 3-(methyl(nonyl)amino)benzamide], the MIC was more than 100 µM against E. coli (Escherichia coli); more than 100 µM in the experiment on S. aureus 29213 (Staphylococcus aureus, 29213); more than 100 µM in the experiment with B. subtilis 168 (Bacillus subtilis, 168).
Take `CCCCCCCCN(C)c1ccc(F)c(C(N)=O)c1F` [Compound F409, 2,6-difluoro-3-(methyl(octyl)amino)benzamide]: the MIC was more than 100 µM against E. coli (Escherichia coli); 12.5 µM (≈ 3.73 µg/mL) against S. aureus 29213 (Staphylococcus aureus, 29213); 25 µM (≈ 7.46 µg/mL) in the experiment with B. subtilis 168 (Bacillus subtilis, 168).
For `CCCCCCCCN(C)c1cccc(C(N)=O)c1` [Compound F414, 3-(methyl(octyl)amino)benzamide], the minimum inhibitory concentration (MIC) in the experiment with E. coli (Escherichia coli) was more than 100 µM; in the experiment with S. aureus 29213 (Staphylococcus aureus, 29213) it was more than 100 µM; with B. subtilis 168 (Bacillus subtilis, 168) it was more than 100 µM.
Regarding `NC(=O)c1c(F)ccc(N(Cc2ccc(F)c(F)c2)Cc2ccc(F)c(F)c2)c1F` [Compound F363, 3-(bis(3′,4′-difluorobenzyl)amino)-2,6-difluorobenzamide], the values for the minimum inhibitory concentration (MIC) with E. coli, in the experiment with S. aureus 29213 and in the experiment with B. subtilis 168 were more than 100 µM, 50 µM (≈ 21.2 µg/mL) and more than 100 µM, respectively.
As for `CCCCCCCCCCNc1ccc(F)c(C(N)=O)c1F` [Compound F334, 3-(decylamino)-2,6-difluorobenzamide], the minimum inhibitory concentration (MIC) against E. coli (Escherichia coli) was more than 100 µM; against S. aureus 29213 (Staphylococcus aureus, 29213), more than 100 µM; in the experiment on B. subtilis 168 (Bacillus subtilis, 168), more than 100 µM.
On to `CCCCCCCCCNc1cccc(C(N)=O)c1` [Compound F411, 3-(nonylamino)benzamide], for which the MIC in the experiment on E. coli (Escherichia coli) is more than 100 µM; with S. aureus 29213 (Staphylococcus aureus, 29213), more than 100 µM; in the experiment with B. subtilis 168 (Bacillus subtilis, 168), 6.25 µM (≈ 1.64 µg/mL).
With `NC(=O)c1c(F)ccc(N2CCCCC2)c1F` [Compound F358, 2,6-difluoro-3-(piperidin-1-yl)benzamide], the MIC in the experiment on E. coli (Escherichia coli) was more than 100 µM; against S. aureus 29213 (Staphylococcus aureus, 29213) it was more than 100 µM; in the experiment with B. subtilis 168 (Bacillus subtilis, 168) it was more than 100 µM.
For the molecule `NC(=O)c1c(F)ccc(NCc2cccc(OCc3ccc(C(F)(F)F)cc3)c2)c1F` [Compound F378, 2,6-difluoro-3-((3′-((4″-(trifluoromethyl)benzyl)oxy)benzyl)amino)benzamide], the MIC against E. coli, in the experiment with S. aureus 29213 and in the experiment with B. subtilis 168 was more than 100 µM throughout.
For `CCCCCCCCCNc1cc(C(N)=O)c(F)cc1F` [Compound F345, 2,4-difluoro-5-(nonylamino)benzamide], the minimum inhibitory concentration (MIC) was more than 100 µM in the experiment on E. coli (Escherichia coli); more than 100 µM with S. aureus 29213 (Staphylococcus aureus, 29213); 100 µM (≈ 29.8 µg/mL) in the experiment with B. subtilis 168 (Bacillus subtilis, 168).
For `NC(=O)c1c(F)ccc(NCc2ccc(F)c(F)c2)c1F` [Compound F362, 3-((3′,4′-difluorobenzyl)amino)-2,6-difluorobenzamide], the MIC against E. coli, in the experiment with S. aureus 29213 and in the experiment on B. subtilis 168 was more than 100 µM in each case.
Turning to `CCCCCCCNc1ccc(F)c(C(N)=O)c1F` [Compound F391, 2,6-difluoro-3-(heptylamino)benzamide], the MIC against E. coli (Escherichia coli) is more than 100 µM; against S. aureus 29213 (Staphylococcus aureus, 29213), 50 µM (≈ 13.5 µg/mL); with B. subtilis 168 (Bacillus subtilis, 168), 50 µM (≈ 13.5 µg/mL).
`CCCCCOc1cccc(CNc2ccc(F)c(C(N)=O)c2F)c1` [Compound F376, 2,6-difluoro-3-((3′-(pentyloxy)benzyl)amino)benzamide]: the MIC against E. coli is reported as more than 100 µM; against S. aureus 29213, 50 µM (≈ 17.4 µg/mL); with B. subtilis 168 it was 12.5 µM (≈ 4.35 µg/mL).
On to `CCCCCCCCNc1cccc(C(N)=O)c1` [Compound F412, 3-(octylamino)benzamide], for which the minimum inhibitory concentration (MIC) was more than 100 µM in the experiment on E. coli (Escherichia coli); more than 100 µM against S. aureus 29213 (Staphylococcus aureus, 29213); 25 µM (≈ 6.21 µg/mL) with B. subtilis 168 (Bacillus subtilis, 168).
Regarding `NC(=O)c1c(F)ccc(N2CCCC2)c1F` [Compound F357, 2,6-difluoro-3-(pyrrolidin-1-yl)benzamide], the minimum inhibitory concentration (MIC) with E. coli (Escherichia coli) is more than 100 µM; against S. aureus 29213 (Staphylococcus aureus, 29213), more than 100 µM; in the experiment with B. subtilis 168 (Bacillus subtilis, 168), more than 100 µM.
As to `NC(=O)c1c(F)ccc(NCc2c(F)cccc2F)c1F` [Compound F366, 3-((2′,6′-difluorobenzyl)amino)-2,6-difluorobenzamide], the minimal inhibitory concentration (MIC) in the experiment with E. coli, in the experiment with S. aureus 29213 and in the experiment on B. subtilis 168 was more than 100 µM in each case.
Consider `CCCCCCCCNc1ccc(F)c(C(N)=O)c1F` [Compound F333, 2,6-difluoro-3-(octylamino)benzamide], for which the MIC in the experiment on E. coli (Escherichia coli) was more than 100 µM; in the experiment with S. aureus 29213 (Staphylococcus aureus, 29213) it was 50 µM (≈ 14.2 µg/mL); in the experiment with B. subtilis 168 (Bacillus subtilis, 168) it was 6.25 µM (≈ 1.78 µg/mL).
In the case of `NC(=O)c1c(F)ccc(NCc2ccc(F)cc2F)c1F` [Compound F364, 3-((2′,4′-difluorobenzyl)amino)-2,6-difluorobenzamide], the MIC against E. coli, against S. aureus 29213 and in the experiment on B. subtilis 168 was more than 100 µM each time.
Take `CCCCCCCCCNc1c(Br)cc(F)c(C(N)=O)c1F` [Compound F371, 4-bromo-2,6-difluoro-3-(nonylamino)benzamide]: the minimal inhibitory concentration (MIC) against E. coli (Escherichia coli) was more than 100 µM; in the experiment with S. aureus 29213 (Staphylococcus aureus, 29213) it was more than 100 µM; in the experiment on B. subtilis 168 (Bacillus subtilis, 168) it was 6.25 µM (≈ 2.36 µg/mL).
In the case of `CCCCCCCCN(CC)c1ccc(F)c(C(N)=O)c1F` [Compound F410, 3-(ethyl(octyl)amino)-2,6-difluorobenzamide], the minimum inhibitory concentration (MIC) is more than 100 µM against E. coli (Escherichia coli); 50 µM (≈ 15.6 µg/mL) with S. aureus 29213 (Staphylococcus aureus, 29213); 25 µM (≈ 7.81 µg/mL) in the experiment on B. subtilis 168 (Bacillus subtilis, 168).
In the case of `CCCCOc1cccc(CNc2ccc(F)c(C(N)=O)c2F)c1` [Compound F373, 3-((3′-butoxybenzyl)amino)-2,6-difluorobenzamide], the minimum inhibitory concentration (MIC) is more than 100 µM with E. coli, 50 µM (≈ 16.7 µg/mL) in the experiment on S. aureus 29213 and 25 µM (≈ 8.36 µg/mL) in the experiment on B. subtilis 168.
On to `CCC(C)Oc1cccc(CNc2ccc(F)c(C(N)=O)c2F)c1` (stereo not drawn) [Compound F377, 3-((3′-(sec-butoxy)benzyl)amino)-2,6-difluorobenzamide], for which the minimal inhibitory concentration (MIC) in the experiment on E. coli, with S. aureus 29213 and in the experiment on B. subtilis 168 was more than 100 µM each time.
With `CC(C)=CCC/C(C)=C/CNc1ccc(F)c(C(N)=O)c1F` [Compound F369, (E)-3-((3,7-dimethyl-2,6-octadien-1-yl)amino)-2,6-difluorobenzamide], the MIC against E. coli (Escherichia coli) was more than 100 µM; against S. aureus 29213 (Staphylococcus aureus, 29213), more than 100 µM; in the experiment on B. subtilis 168 (Bacillus subtilis, 168), 50 µM (≈ 15.4 µg/mL).
As for `NC(=O)c1c(F)ccc(N(Cc2c(F)cccc2F)Cc2c(F)cccc2F)c1F` [Compound F367, 3-(bis(2′,6′-difluorobenzyl)amino)-2,6-difluorobenzamide], the minimum inhibitory concentration (MIC) in the experiment on E. coli, in the experiment on S. aureus 29213 and in the experiment with B. subtilis 168 was more than 100 µM each time.
